Assay results: ChEMBL document CHEMBL2086285, “Targeting the liver stage of malaria parasites: a yet unmet goal” (J Med Chem, 2012)

What was measured:
Plasmodium berghei [1] = experiment: Antimalarial activity against liver stages of Plasmodium berghei assessed as inhibition of cytochrome bc1 complex; type: functional, organism-based
Plasmodium cynomolgi = experiment: Antimalarial activity against Plasmodium cynomolgi M infected in rhesus monkey administered as po qd for 7 days; type: functional; conditions: in Macaca mulatta, 168 h
Plasmodium yoelii [2] = experiment: Antimalarial activity against liver stages of Plasmodium yoelii 265 BY infected in Swiss mouse after 48 hrs by fluorescence microscopy; type: functional, organism-based
Plasmodium yoelii [3] = experiment: Antimalarial activity against liver stages of Plasmodium yoelii; type: functional, organism-based
Plasmodium falciparum = experiment: Antimalarial activity against liver stages of Plasmodium falciparum NF54 infected in human HepG2 cells after 6 days by fluorescence microscopy; type: functional, organism-based; conditions: NF54, HepG2, 144 h
Plasmodium berghei [4] = experiment: Antimalarial activity against liver stages of Plasmodium berghei […] infected in human Hepa1-6 cells assessed as reduction in liver parasite load at 10 uM/L incubated for 1 hr prior to sporozoite inoculation measured after 46 to 48 hrs by fluorescence microscope; type: functional; parameters: scale not given: the % may be the effect or the level left
Plasmodium yoelii yoelii = experiment: Antimalarial activity against liver stages of Plasmodium yoelii yoelii; type: functional, organism-based
Plasmodium yoelii [5] = experiment: Antimalarial activity against liver stages of Plasmodium yoelii 17XNL expressing GFP infected in human HepG2 cells transfected with CD81 assessed as growth inhibition of hepatic parasite after 40 hrs by flow cytometry; type: functional, organism-based
Plasmodium berghei [6] = experiment: Antimalarial activity against liver stages of Plasmodium berghei; type: functional, organism-based
Plasmodium berghei [7] = experiment: Antimalarial activity against liver stages of Plasmodium berghei in human HepG2 cells assessed as growth inhibition at 10 ug/mL; type: functional; conditions: read-out: GI
Plasmodium yoelii [8] = experiment: Antimalarial activity against Plasmodium yoelii infected in mouse assessed as protection against parasitic infection at 160 mg/kg, po; type: functional
[9] = Plasmodium yoelii, 265 BY, 48 h

`CCCCCC[C@@H](C)CC1=C(O)C(=O)c2c(C)cccc2C1=O` was tested, and the IC50 (Plasmodium berghei [1]) was 246 nM.
In the case of `COc1cc(NC(C)CCCN)c2nc(C)cc(C)c2c1` (stereo not given), the ED50 (Plasmodium cynomolgi) is reported as 0.36 mg/kg.
`COc1cc(NCCCCCNC(C)C)c2nccc(C)c2c1` gave an ED50 (Plasmodium cynomolgi) of 0.5 mg/kg.
`COc1cc([C@H](O)[C@H](C)Oc2c(OC)cccc2OC)cc(OC)c1OC` was tested, and the IC50 (Plasmodium yoelii [2]; [9]) was 28600 nM.
`COc1cc(NCCCC(C)N)c2nccc(C)c2c1` (stereo not given) gave an ED50 (Plasmodium cynomolgi) of 0.11 mg/kg.
`COc1cc(NC(C)CCCN)c2nc(C)ccc2c1Oc1ccc(F)cc1` (stereo not given) showed an ED50 (Plasmodium cynomolgi) of 0.22 mg/kg.
`COc1cc(NC(C)CCCN)c2nccc(C)c2c1Oc1cccc(C(F)(F)F)c1` (stereo not given) was tested, and the ED50 (Plasmodium cynomolgi) was 0.11 mg/kg.
Molecule `CCC(CCCN)Nc1cc(OC)cc2c(C)ccnc12` (stereo not given) has an ED50 (Plasmodium cynomolgi) of 0.074 mg/kg.
Work on `CN1CN(Cc2ccccc2)C(=O)N[C@@H](Cc2ccccc2)C1=O` yielded an IC50 (Plasmodium yoelii [3]) of over 200000 nM.
In the case of `COc1cc([C@H](O)[C@@H](C)Oc2c(OC)cc(-c3ccccc3)cc2OC)cc(OC)c1OC`, the IC50 (Plasmodium falciparum) is reported as 7 nM and the IC50 (Plasmodium yoelii [2]; [9]) is reported as 3610 nM.
`CCc1ccnc2c(NC(C)CCCN)cc(OC)cc12` (stereo not given) gave an ED50 (Plasmodium cynomolgi) of 0.45 mg/kg.
`CCN(CC)CCCNc1cc(OC)cc2c(C)ccnc12` was tested, and the ED50 (Plasmodium cynomolgi) was 0.51 mg/kg.
`CC(C)(C)NC(=O)[C@@H]1C[C@@H]2CCCC[C@@H]2CN1C[C@@H](O)[C@H](Cc1ccccc1)NC(=O)[C@H](CC(N)=O)NC(=O)c1ccc2ccccc2n1` showed an Activity (Plasmodium berghei [4]) of 55%.
`CCCCCC[C@@H](C)CC1=C(O)C(=O)c2ccccc2C1=O` was tested, and the IC50 (Plasmodium berghei [1]) was 96.2 nM.
`COc1cc(NCCCC(C)N)c2nc(C)ccc2c1` (stereo not given) gave an ED50 (Plasmodium cynomolgi) of 0.21 mg/kg.
For `COCC(=O)O[C@]1(CCN(C)CCCc2nc3ccccc3[nH]2)CCc2cc(F)ccc2[C@@H]1C(C)C` [MIBEFRADIL], the IC50 (Plasmodium yoelii yoelii) was 0.873 nM.
`CO[C@H]1/C=C/O[C@@]2(C)Oc3c(C)c(O)c4c(O)c(c(/C=N/N5CCN(C)CC5)c(O)c4c3C2=O)NC(=O)/C(C)=C\C=C\[C@H](C)[C@H](O)[C@@H](C)[C@@H](O)[C@@H](C)[C@H](OC(C)=O)[C@@H]1C` [RIFAMPIN] was tested, and the IC50 (Plasmodium yoelii [5]) was 22200 nM.
Work on `COc1cc(NC(C)CCCNCc2ccc(CO[C@H]3O[C@@H]4O[C@@]5(C)CC[C@H]6[C@H](C)CCC([C@H]3C)[C@@]46OO5)cc2)c2ncccc2c1` (stereo not given in full) yielded an IC50 (Plasmodium berghei [6]) of 155 nM.
Molecule `COc1cc(NCCCC(C)N)c2ncccc2c1Oc1cccc(C(F)(F)F)c1` (stereo not given) has an ED50 (Plasmodium cynomolgi) of 0.5 mg/kg.
With `Oc1c(Cl)cc(Cl)c(Cl)c1Cc1c(O)c(Cl)cc(Cl)c1Cl` [HEXACHLOROPHENE] the IC50 (Plasmodium yoelii [5]) was 4000 nM.
With `COc1c(-c2c(C)cc(OC)c3c(O)cccc23)ccc2c1[C@@H](C)N[C@H](C)C2` the inhibition of growth at 10 µg/mL (Plasmodium berghei [7]) was 48.8%.
With `COc1cc(NC(C)CCCN)c2nccc(C)c2c1OC` (stereo not given) the ED50 (Plasmodium cynomolgi) was 0.098 mg/kg.
Molecule `COc1cc(NC(C)CCCN)c2ncccc2c1C(=O)C(F)(F)F` (stereo not given) has an ED50 (Plasmodium cynomolgi) of 0.44 mg/kg.
With `CN1CNC(=O)N[C@H](Cc2ccccc2)C1=O` the IC50 (Plasmodium yoelii [3]) was over 200000 nM.
For `CC[C@]1(O)C[C@@H]2CN(CCc3c([nH]c4ccccc34)[C@@](C(=O)OC)(c3cc4c(cc3OC)N(C)[C@H]3[C@@](O)(C(=O)OC)[C@H](OC(C)=O)[C@]5(CC)C=CCN6CC[C@]43[C@@H]65)C2)C1` [VINBLASTINE], the IC50 (Plasmodium yoelii yoelii) was 7950 nM.
For `COc1cc(NC(C)CCCN)c2nc(OCc3ccc(F)cc3)ccc2c1` (stereo not given), the ED50 (Plasmodium cynomolgi) was 0.35 mg/kg.
`CCOc1c(OC)cc(NC(C)CCCN)c2ncccc12` (stereo not given) was tested, and the ED50 (Plasmodium cynomolgi) was 0.18 mg/kg.
In the case of `COc1cc([C@H](O)[C@H](C)Oc2c(OC)cc(C)cc2OC)cc(OC)c1OC`, the IC50 (Plasmodium yoelii [2]; [9]) is reported as 50100 nM.
`C=Cc1ccnc2c(NC(C)CCCN)cc(OC)cc12` (stereo not given) showed an ED50 (Plasmodium cynomolgi) of 0.5 mg/kg.
Molecule `COc1cc(C)c(-c2ccc(OC(=O)c3ccccc3)c3c2C[C@@H](C)N(C=O)[C@@H]3C)c2cccc(O)c12` has an inhibition of growth at 10 µg/mL (Plasmodium berghei [7]) of 52.7%.
`CC[C@H](C)[C@H](NC(=O)[C@H]([C@@H](C)CC)N(C)C(C)=O)C(=O)N[C@H](C(=O)N[C@@H](CC(C)C)C(=O)[C@@]1(C)CO1)[C@@H](C)O` [EPOXOMYCIN] showed an IC50 (Plasmodium yoelii yoelii) of 3950 nM.
Molecule `CCOC(=O)/N=C(\NC1=NC(=O)C(=O)N1C(C)C)Nc1ccc(Cl)c(Cl)c1` has an Activity (Plasmodium yoelii [8]) of 100%.
`CC(N)C12CC3CC(CC(C3)C1)C2` (stereo not given) [RIMANTADINE] showed an IC50 (Plasmodium yoelii yoelii) of 35.6 nM.
`COc1cc([C@H](O)[C@@H](C)Oc2c(OC)cc(C)cc2OC)cc(OC)c1OC` showed an IC50 (Plasmodium falciparum) of 380 nM and an IC50 (Plasmodium yoelii [2]; [9]) of 4.5 nM.
For `CCN(CC)CCCCCCNc1cc(OC)cc2c(C)ccnc12` [SITAMAQUINE], the ED50 (Plasmodium cynomolgi) was 0.35 mg/kg.
For `COc1cccc(OC)c1OC(C)[C@@H](O)c1ccc2c(c1)OC(F)(F)O2` (mixture of isomers; 144), the IC50 (Plasmodium yoelii [2]) was 20200 nM.
`COc1cc(NC(C)CCCN)c2nc(C)ccc2c1Oc1cccc(C(F)(F)F)c1` (stereo not given) was tested, and the ED50 (Plasmodium cynomolgi) was 0.36 mg/kg.
For `CC(CCc1ccc(O)cc1)NCCc1ccc(O)c(O)c1` (stereo not given) [DOBUTAMINE], the IC50 (Plasmodium yoelii yoelii) was 3.7 nM.
